In ChEMBL document CHEMBL4680348, “1,2,4-Thiadiazole acyclic nucleoside phosphonates as inhibitors of cysteine dependent enzymes cathepsin K and GSK-3β” (Bioorg Med Chem, 2021):

Tests used:
HepG2 [1] = test: Cytotoxicity against human HepG2 cells assessed as cell viability at 10 uM incubated for 72 hrs by CellTiter-Glo luminescence based assay; assay type: functional; settings: read-out: Activity
CCRF-CEM [2] = test: Cytotoxicity against human CCRF-CEM cells assessed as cell viability at 100 uM incubated for 72 hrs by CellTiter-Glo luminescence based assay; assay type: functional; settings: read-out: Activity
SH-SY5Y [3] = test: Cytotoxicity against human SH-SY5Y cells assessed as cell viability at 10 uM incubated for 72 hrs by CellTiter-Glo luminescence based assay; assay type: functional; settings: read-out: Activity
[4] = target: Glycogen synthase kinase-3 beta (Homo sapiens, UniProt P49841); test: Inhibition of human recombinant GSK3beta using GSK3 peptide as substrate preincubated for 15 mins followed by ATP addition and measured after 90 mins by ADP-Glo kinase assay
Glycogen synthase kinase-3 beta, sequence (P49841 whole entry): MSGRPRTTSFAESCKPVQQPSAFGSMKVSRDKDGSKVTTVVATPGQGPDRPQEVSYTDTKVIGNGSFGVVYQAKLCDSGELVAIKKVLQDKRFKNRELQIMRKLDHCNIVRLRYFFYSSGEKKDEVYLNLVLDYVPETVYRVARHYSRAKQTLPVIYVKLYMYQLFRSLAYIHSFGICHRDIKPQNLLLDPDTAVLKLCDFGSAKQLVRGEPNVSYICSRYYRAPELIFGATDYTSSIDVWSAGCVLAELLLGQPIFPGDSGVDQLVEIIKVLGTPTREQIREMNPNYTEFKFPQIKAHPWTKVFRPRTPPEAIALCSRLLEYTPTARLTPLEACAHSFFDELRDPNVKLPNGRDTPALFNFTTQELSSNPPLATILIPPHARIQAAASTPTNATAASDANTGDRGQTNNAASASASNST

CCRF-CEM [5] = test: Cytotoxicity against human CCRF-CEM cells assessed as cell viability at 10 uM incubated for 72 hrs by CellTiter-Glo luminescence based assay; assay type: functional; settings: read-out: Activity
HepG2 [6] = test: Cytotoxicity against human HepG2 cells assessed as cell viability at 100 uM incubated for 72 hrs by CellTiter-Glo luminescence based assay; assay type: functional; settings: read-out: Activity
HL-60 [7] = test: Cytotoxicity against human HL-60 cells assessed as cell viability at 100 uM incubated for 72 hrs by CellTiter-Glo luminescence based assay; assay type: functional; settings: read-out: Activity
HeLa S3 [8] = test: Cytotoxicity against human HeLa S3 cells assessed as cell viability at 10 uM incubated for 72 hrs by CellTiter-Glo luminescence based assay; assay type: functional; settings: read-out: Activity
[9] = target: T1, Cathepsin K (Homo sapiens) (UniProt P43235); test: Inhibition of recombinant human Cathepsin K expressed in Pichia pastoris X-33 assessed as residual activity at 10 uM using Z-Gly-Pro-Arg-AMC as substrate preincubated for 10 mins followed by substrate addition measured after 30 mins by fluorescence based microplate reader assay; settings: time 40.0 min
T1 sequence (whole entry): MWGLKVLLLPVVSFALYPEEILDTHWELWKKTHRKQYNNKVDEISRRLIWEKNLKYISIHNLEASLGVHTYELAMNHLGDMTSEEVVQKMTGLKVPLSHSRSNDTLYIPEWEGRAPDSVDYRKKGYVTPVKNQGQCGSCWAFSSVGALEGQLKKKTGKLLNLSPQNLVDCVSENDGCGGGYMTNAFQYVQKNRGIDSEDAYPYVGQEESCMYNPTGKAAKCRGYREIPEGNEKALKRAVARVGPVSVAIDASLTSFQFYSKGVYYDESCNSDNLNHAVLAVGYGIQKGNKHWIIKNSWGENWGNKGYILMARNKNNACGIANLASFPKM

HeLa S3 [10] = test: Cytotoxicity against human HeLa S3 cells assessed as cell viability at 100 uM incubated for 72 hrs by CellTiter-Glo luminescence based assay; assay type: functional; settings: read-out: Activity
SH-SY5Y [11] = test: Cytotoxicity against human SH-SY5Y cells assessed as cell viability at 100 uM incubated for 72 hrs by CellTiter-Glo luminescence based assay; assay type: functional; settings: read-out: Activity
HL-60 [12] = test: Cytotoxicity against human HL-60 cells assessed as cell viability at 10 uM incubated for 72 hrs by CellTiter-Glo luminescence based assay; assay type: functional; settings: read-out: Activity
[13] = Cytotoxicity against human NHDF cells assessed as cell viability at 10 uM incubated for 72 hrs by CellTiter-Glo luminescence based assay; settings: read-out: Activity
[14] = Cytotoxicity against human NHDF cells assessed as cell viability at 100 uM incubated for 72 hrs by CellTiter-Glo luminescence based assay; settings: read-out: Activity

SMILES | viability at 10 µM (HepG2 [1]) [%] | viability at 100 µM (CCRF-CEM [2]) [%] | viability at 10 µM (SH-SY5Y [3]) [%] | IC50 [4] [µM] | viability at 10 µM (CCRF-CEM [5]) [%] | viability at 100 µM (HepG2 [6]) [%] | viability at 100 µM (HL-60 [7]) [%] | viability at 10 µM (HeLa S3 [8]) [%] | Activity [9] [%] | viability at 100 µM (HeLa S3 [10]) [%] | viability at 100 µM (SH-SY5Y [11]) [%] | viability at 10 µM (HL-60 [12]) [%] | viability at 72 h, 10 µM [13] [%] | viability at 72 h, 100 µM [14] [%]
CN(C)/C=N/c1nc(=O)[nH]s1 | 97 | 84 | 100 | > 10 | 122 | 85 | 105 | 97 | 67 | 112 | 75 | 102 | 105 | 107
CCOC(=O)Nc1nc(=O)n(C[C@@H](CO)OCP(=O)(OC(C)C)OC(C)C)s1 | 101 | 45 | 104 | > 10 | 67 | 93 | 101 | 90 | 83.4 | 87 | 104 | 97 | 104 | 100
O=C(Nc1nc(=O)n(C[C@@H](CO)OCP(=O)(O)O)s1)OCC1c2ccccc2-c2ccccc21 | 106 | 119 | 99 | > 10 | 88 | 88 | 100 | 98 | 85.5 | 99 | 93 | 93 | 98 | 95
CC(C)OP(=O)(COCCOc1nsc(/N=C/N(C)C)n1)OC(C)C | 99 | 93 | 101 | > 10 | 106 | 90 | 98 | 101 | 52.9 | 89 | 87 | 97 | 101 | 99
CC(C)OP(=O)(COCCOc1nsc(N)n1)OC(C)C | 100 | 103 | 98 | > 10 | 114 | 99 | 108 | 97 | 78.3 | 98 | 55 | 103 | 104 | 114
CC(C)OP(=O)(COCCn1sc(NC(=O)c2ccccc2)nc1=O)OC(C)C | 103 | 94 | 104 | > 10 | 100 | 101 | 115 | 101 | 80.6 | 100 | 101 | 104 | 103 | 101
O=C(Nc1nc(=O)n(CCOCP(=O)(O)O)s1)OCC1c2ccccc2-c2ccccc21 | 105 | 90 | 102 | > 10 | 85 | 103 | 106 | 97 | 67 | 102 | 99 | 102 | 93 | 84
O=C(Nc1nc(=O)[nH]s1)c1ccccc1 | 99 | 96 | 103 | > 10 | 102 | 77 | 110 | 99 | 85 | 101 | 90 | 101 | 104 | 100
CCOC(=O)Nc1nc(=O)n(C[C@@H](CO)OCP(=O)(O)O)s1 | 99 | 114 | 100 | > 10 | 94 | 89 | 99 | 97 | 97.5 | 94 | 99 | 95 | 101 | 99
CC(=O)Nc1nc(=O)[nH]s1 | 103 | 102 | 102 | > 10 | 104 | 88 | 108 | 97 | 76.6 | 102 | 99 | 105 | 99 | 105
CC(C)OP(=O)(CO[C@H](CO)Cn1sc(NC(=O)c2ccccc2)nc1=O)OC(C)C | 109 | 97 | 100 | > 10 | 86 | 99 | 118 | 97 | 92.9 | 105 | 97 | 106 | 103 | 104
O=c1sn(-c2cccc3ccccc23)c(=O)n1Cc1ccccc1 [TIDEGLUSIB] | 92 |  | 80 |  | 30 |  |  | 69 |  |  |  | 34 | 57 | 
Cc1cnc(-c2cnc(NCCNc3ccc(C#N)cn3)nc2-c2ccc(Cl)cc2Cl)[nH]1 [LADUVIGLUSIB] | 86 |  | 77 |  | 28 |  |  | 67 |  |  |  | 119 | 53 | 
